Measured values as given in PubChem BioAssay (NCI).
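Interpolation was linear, between the two tested concentrations surrounding the appropriate level; five concentrations were tested over 48 hours in 96-well plates. GI50 = concentration required for 50% inhibition of growth. TGI is the concentration that stops growth completely.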

What was measured:
Assay in all cases: growth of human tumour cells (NCI), 48 h
786-0 renal = test system: 786-0 renal
SR leukemia = test system: SR leukemia
SK-MEL-28 melanoma = test system: SK-MEL-28 melanoma
HCT-116 colon = test system: HCT-116 colon
IGROV1 ovarian = test system: IGROV1 ovarian
NCI-H23 lung = test system: NCI-H23 lung
OVCAR-3 ovarian = test system: OVCAR-3 ovarian
MDA-MB-435 = test system: MDA-MB-435
M19-MEL melanoma = test system: M19-MEL melanoma
KM20L2 colon = test system: KM20L2 colon

SMILES | GI50 (786-0 renal) | TGI (786-0 renal) | GI50 (SR leukemia) | TGI (SR leukemia) | GI50 (SK-MEL-28 melanoma) | TGI (SK-MEL-28 melanoma) | GI50 (HCT-116 colon) | TGI (HCT-116 colon) | GI50 (IGROV1 ovarian) | TGI (IGROV1 ovarian) | GI50 (NCI-H23 lung) | TGI (NCI-H23 lung) | GI50 (OVCAR-3 ovarian) | TGI (OVCAR-3 ovarian) | GI50 (MDA-MB-435) | TGI (MDA-MB-435) | TGI (M19-MEL melanoma) | TGI (KM20L2 colon)
COc1ccc(C2=NC(=O)NC2c2ccc(OC)cc2)cc1 (centres undefined) | 26.9 µM | > 100 µM | 1.63 µM | 6.91 µM | 14.9 µM | > 100 µM | 5.9 µM | 27.7 µM | 23.2 µM | > 100 µM | 12.9 µM | 78.3 µM | 10.8 µM | 35.3 µM | 1.73 µM | 4.56 µM |  | 
COc1ccc(-c2nc(-c3nc4cc(Cl)c(F)cc4[nH]3)c3ccccn23)cc1 | 8.94 µM | > 100 µM | 3.87 µM | > 100 µM | > 100 µM | > 100 µM | 6.09 µM | > 100 µM | 4.91 µM | > 100 µM | 29.1 µM | > 100 µM | 8.75 µM | > 100 µM | 3.8 µM | > 100 µM |  | 
Nc1c(C(=O)c2cccc(C#CCN3CCCCC3)c2)cnn1-c1ccc(F)cc1 | > 25 µM | > 25 µM | 14.2 µM | > 25 µM | > 25 µM | > 25 µM | > 17.7 µM | > 25 µM | > 25 µM | > 25 µM | > 22.5 µM | > 25 µM | > 25 µM | > 25 µM | 15.3 µM | > 25 µM |  | 
COc1ccc(O)c(C(=O)CCC(=O)O)c1 |  | > 100 µM |  | > 100 µM |  | > 100 µM |  |  |  | > 100 µM |  | > 100 µM |  | > 10 µM |  |  | > 100 µM | 
COc1ccc(C(=O)c2sc3nc(-c4ccccc4OC)ccc3c2N)cc1OC | 11.7 µM | > 100 µM | 7.3 µM | > 100 µM | > 100 µM | > 100 µM | 5.55 µM | > 100 µM | 20.3 µM | > 100 µM | 50.1 µM | > 100 µM | 18.3 µM | > 100 µM | 4.25 µM | > 100 µM |  | 
CCCCCCCCCc1ccc(OCCOCCOCCOCCOCCOCCOCCOCCOCCO)cc1 | 1.02 µM | 4.12 µM | 0.437 µM | 1.91 µM | 0.895 µM | 2.02 µM | 0.374 µM | 1.59 µM | 0.999 µM | 4.32 µM | 0.257 µM | 3.26 µM | 0.428 µM | 2.29 µM | 0.832 µM | 3.05 µM |  | 
CC(=O)c1ccc(NC(=O)C(=O)C(C(=O)/C=C/c2ccccc2)C2OC(=O)c3ccccc32)cc1 (centres undefined) |  | > 100 µM |  | > 100 µM |  | > 100 µM |  | > 100 µM |  | > 100 µM |  | > 100 µM |  |  |  |  | > 100 µM | > 100 µM
O=C1c2ccccc2C(=O)C12CCc1ccccc12 |  | > 100 µM |  |  |  | > 100 µM |  |  |  | > 100 µM |  | > 100 µM |  | > 100 µM |  |  | > 100 µM | > 100 µM
CC(=O)c1ccc2c(c1)N(CCCN1CCN(CCO)CC1)c1ccccc1S2 | 1.77 µM | 3.64 µM | 2.68 µM | 6.92 µM | 1.73 µM | 3.23 µM | 1.81 µM | 3.49 µM | 2.16 µM | 6.12 µM | 5.68 µM | 18.9 µM | 2.85 µM | 8.9 µM | 1.72 µM | 3.52 µM |  | 
CCSc1ccc([C@@H]2[C@@H](O)C(=O)N2c2cc(OC)c(OC)c(OC)c2)cc1 | < 0.016 µM | 29 µM | < 0.01 µM | 17.4 µM | 11.7 µM | 33 µM | < 0.011 µM | 3.06 µM | 0.0235 µM | 66.2 µM | 0.0456 µM | 61 µM | < 0.01 µM | 0.548 µM | < 0.01 µM | < 0.0112 µM |  | 
CCOC(=O)c1ccc(NC(=O)NC2=NCCS2)cc1 | 0.693 µM | > 100 µM | 0.973 µM | > 100 µM | 64.9 µM | > 100 µM | 50.9 µM | > 100 µM | 2.11 µM | > 100 µM | 3.61 µM | > 100 µM | 0.289 µM | 0.897 µM | 3.42 µM | 19.4 µM |  | 
C=C1C(=O)O[C@H]2[C@H]1CC/C(Cn1cc(-c3ccc(N)cc3)nn1)=C\CC[C@@]1(C)O[C@@H]21 | 1.98 µM | 4.62 µM | 0.702 µM | > 100 µM | 2.71 µM | 7.54 µM | 1.55 µM | 4.22 µM | 2.96 µM | 14.1 µM | 2.49 µM | 7.72 µM | 1.62 µM | 3.99 µM | 3.01 µM | 11.5 µM |  | 
Clc1ccc(/C=C/c2ccc3ccccc3n2)cc1 | 6.33 µM | > 100 µM | 0.443 µM | 4.12 µM | 3.18 µM | > 100 µM | 0.399 µM | > 100 µM | 0.716 µM | > 80.8 µM | 3.08 µM | > 100 µM | 0.917 µM | 6.73 µM | 0.226 µM | 0.531 µM |  | 
COc1cccc(CNc2ncnc3c2ncn3C2OC(CO)C(O)C2O)c1O (centres undefined) | 0.27 µM | > 100 µM | 0.0651 µM |  | 1.55 µM | > 100 µM | 0.0659 µM |  | 0.206 µM |  | 0.282 µM | > 100 µM | 0.539 µM | 4.11 µM | 0.111 µM | 2.78 µM |  | 
CN/N=C(/c1nc2ccc([N+](=O)[O-])cc2[nH]c1=O)C(O)c1ccc(C(O)/C(=N\NC)c2nc3ccc([N+](=O)[O-])cc3[nH]c2=O)cc1 (centres undefined) |  | > 100 µM |  |  |  | > 100 µM |  | > 100 µM |  | > 100 µM |  | > 100 µM |  | > 100 µM |  |  | > 100 µM | > 100 µM
c1ccc(-c2nc3n(c2-c2ccc4c(c2)OCO4)CCC3)nc1 | 3.89 µM | 24.9 µM | 9.49 µM | > 25 µM | 9.29 µM | > 22.8 µM | 8.16 µM | > 25 µM | 7.37 µM | > 23.2 µM | 9.59 µM | > 25 µM | 7.69 µM | > 22.6 µM | 8.8 µM | > 25 µM |  | 
